This note sets out measurements from article PMC6155662, “Trypanocidal Activity of Quinoxaline 1,4 Di-N-oxide Derivatives as Trypanothione Reductase Inhibitors” (Molecules : A Journal of Synthetic Chemistry and Natural …, 2017).

One data set deals with T1, recombinant T. cruzi TR (Trypanosoma cruzi, UniProt P28593).
T1 construct: made in house
As to the kind of experiment: TR enzyme inhibition (NADPH consumption at 340 nm). The data set is classed as biochemical. To be noted: for inhibition at 5 µM: inhibitor 5 µM; for inhibition at 10 µM: inhibitor 10 µM; for inhibition at 20 µM: inhibitor 20 µM; for inhibition at 40 µM: inhibitor 40 µM; for inhibition at 60 µM: inhibitor 60 µM; for inhibition at 80 µM: inhibitor 80 µM, T-085 precipitates in the assay at 80 µM. The protocol: Trypanothione disulfide (TS2) and recombinant T. cruzi TR were prepared following published procedures. Recombinant human glutathione reductase (GR) was kindly provided by Dr. Heiner Schirmer, Heidelberg Germany. Stock solutions (5 mM) of the inhibitors were prepared in DMSO. The kinetic analyses were conducted using a Jasco V650 spectrophotometer. All enzymatic tests were performed in polystyrene optical cuvettes (10 × 4 × 45 mm). TR activity was measured at 25 °C in a total volume of 1 mL TR assay buffer (40 mM HEPES, 1 mM EDTA, pH 7.5 [47]) containing 100 μM NADPH and 5–10 mU enzyme in the absence and presence of the inhibitor. Each assay contained a total of 5% DMSO. The reaction was started by adding TS2 and NADPH consumption was followed at 340 nm.
Five compound concentrations were used ranging from 100–5 μM. All measurements were performed twice in three independent series. Enzyme activity was plotted versus increasing inhibitor concentrations. IC50 values were calculated using the four-parameter equation model 205 and the option “unlock” from the XLfit add-in (IDBS, Guildford, United Kingdom) for Excel (Microsoft Corporation, Redmond, WA, USA).
The type of inhibition and the inhibitor constants were derived from Lineweaver-Burk plot. The activity of TR was measured in the absence and presence of two to three constant concentrations of inhibitor varying the concentration of TS2 (20, 40, 60, 100 and 200 µM). The inhibitory constant Ki was calculated from the direct plot using nonlinear least-squares data fitting in Excel spreadsheet.

Data set [1] deals with T. cruzi bloodstream trypomastigotes INC-5 strain. As to the kind of experiment: microbe, parasite or virus in culture. To be noted: for CC50: bloodstream trypomastigotes, 24 h at 4 °C (called IC50 in abstract), read-out: LC50 INC-5 Strain. The format is cell-based. Here is the method: (§1) In this study, two strains of T. cruzi isolated in Mexico were used. T. cruzi NINOA strain (MHOM/MX/1994/NINOA) was obtained from a patient with acute Chagas disease and T. cruzi INC-5 (MHOM/MX/1994/INC5) was isolated from a patient in the chronic phase of the disease. Epimastigotes were cultured in vitro in liver infusion-tryptose (LIT) medium supplemented with 10% heat inactivated fetal bovine serum (FBS) (Gibco) and 100 U/mL penicillin-streptomycin (In vitro S.A.), and incubated at 27 °C. CD1 mice, aged 6–8 weeks, were infected with T. cruzi to obtain bloodstream trypomastigote samples. Animal experiments were performed according to Norma Oficial Mexicana (NOM-062-Z00-1999) published on 22 August, 2009.
(§2) CD1 female mice 6–8 weeks old were infected with T. cruzi bloodstream trypomastigotes of the INC-5 and NINOA strains. The course of infection continued for 4–6 weeks. At the peak of parasitemia blood was obtained by cardiac puncture using sodium heparin as an anticoagulant. The blood was adjusted to 1 × 10^6 bloodstream trypomastigotes/mL.
(§3) In each well of the 96-well plate, 195 μL of infected blood and 5 μL of quinoxaline 1,4-di-N-oxide derivatives or reference drug dilutions were seeded, with each well reaching a final volume of 200 µL. Each assay was performed in triplicate. Initially, all compounds were tested at 50 μg/mL. […] As a negative control of lysis, wells with untreated blood trypomastigotes were used, and as a positive control, wells with the reference drugs were used. The microplates were incubated at 4 °C for 24 h. Bloodstream trypomastigotes were quantified by the method of Brener-Pizzi, 5 μL of blood were placed on a slide and covered with a coverslip 13 × 13 mm. The mobile protozoa were counted in 15 fields at 40× magnification using an optical microscope. The percentage lysis was determined by comparing the remaining trypomastigotes against the negative control. LC50 was determined with the Probit statistical tool. The results were later converted to micromolar units.

The subject of data set [2] is T. cruzi bloodstream trypomastigotes NINOA strain. Nature of the data set: microbe, parasite or virus in culture. The data set is classed as cell-based. To be noted: Trypanosoma cruzi. Here is the method:
as §1, §2, §3

Data set [3] relates to T. cruzi INC-5 epimastigotes. Nature of the data set: Viability (MTT) assay on T. cruzi epimastigotes. The format is cell-based, Trypanosoma cruzi. To be noted: 24 h, mean and SD of triplicate. Here is the method: In this study, two strains of T. cruzi isolated in Mexico were used. […] Epimastigotes were cultured in vitro in liver infusion-tryptose (LIT) medium supplemented with 10% heat inactivated fetal bovine serum (FBS) (Gibco) and 100 U/mL penicillin-streptomycin (In vitro S.A.), and incubated at 27 °C. CD1 mice, aged 6–8 weeks, were infected with T. cruzi to obtain bloodstream trypomastigote samples.
Viability assays of T. cruzi epimastigotes using 3-(4,5-dimethylthiazol-2-yl)-2,5-diphenyltetrazolium bromide (MTT) were performed. Briefly, the parasites were harvested during the exponential growth phase for a period of five days. In a 96-well microplate 1x10^6 epimastigotes were deposited in brain-heart infusion (BHI) medium supplemented with 10% FBS and 100 U/mL antibiotic-antifungal mixture (Gibco). […] Each well reached a final volume of 100 µL. Each condition was assessed in triplicate. The microplate was incubated for 24 h at 27 °C in darkness. Afterwards, 10 μL of a 5 mg/mL MTT solution was added and the plate was incubated for 20 h at 27 °C. Then 200 μL of 10% dodecyl sulfate (SDS)/0.1% HCl solution was added to dissolve formazan salts; the plate was incubated an additional 4 h. Finally, the plate was read at 570 nm in a spectrophotometer (Multiskan EX Thermo Electron, Taipei, Taiwan). The amount of viable cells was proportional to the amount of formazan produced. […] Later the results were converted to micromolar units. […] As a […] control, parasites were incubated only in culture medium with a 1% DMSO concentration, corresponding to the highest sample dilution of DMSO [34, 35, 36].

Setting [4] is: 40 µM TS2, read-out: % Inhibition of TR at 40 µM [TS2].
Where [5] appears, read: 100 µM TS2, read-out: % Inhibition of TR at 100 µM [TS2].

Read-outs that look alike come from different tables or passages of the source.

T1 sequence (P28593 whole entry): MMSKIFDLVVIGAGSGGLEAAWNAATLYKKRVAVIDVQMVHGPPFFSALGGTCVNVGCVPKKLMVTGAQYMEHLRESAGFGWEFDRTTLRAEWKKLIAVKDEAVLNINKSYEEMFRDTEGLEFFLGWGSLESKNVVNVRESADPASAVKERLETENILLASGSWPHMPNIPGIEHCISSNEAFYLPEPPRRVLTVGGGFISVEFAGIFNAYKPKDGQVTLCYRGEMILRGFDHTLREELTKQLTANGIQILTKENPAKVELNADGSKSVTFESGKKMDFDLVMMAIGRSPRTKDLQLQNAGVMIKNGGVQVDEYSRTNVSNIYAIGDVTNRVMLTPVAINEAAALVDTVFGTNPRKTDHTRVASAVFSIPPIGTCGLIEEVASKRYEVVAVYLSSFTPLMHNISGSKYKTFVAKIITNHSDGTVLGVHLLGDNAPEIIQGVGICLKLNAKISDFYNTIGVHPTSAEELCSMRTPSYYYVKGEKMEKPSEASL

The term Ki denotes the dissociation constant of the complex between target and ligand, obtained from inhibition or displacement. What is called inhibition is the relative decrease from the control value, in per cent. Broadly, the IC50 is the concentration needed to halve the response being measured. For orientation: LC50 means the concentration lethal to half of the exposed cells or organisms. A high value points to a less lethal substance. For `CC(C)OC(=O)c1ccc2c(c1)[n+]([O-])c(C(=O)C(C)C)c(C(F)(F)F)[n+]2[O-]` [Compound T-085, Isopropyl 2-isobutyryl-3-trifluoromethylquinoxaline-7-carboxylate 1,4-di-N-oxide], the type of inhibition entry on recombinant T. cruzi TR (TcTR, Lineweaver-Burk plot) is “non-competitive inhibitor”. Besides, the Ki on recombinant T. cruzi TR (TcTR, Lineweaver-Burk plot, inhibitor 15 and 50 µM, TS2 20-200 µM) was determined as 35 µM. For the same molecule, the inhibition at 5 µM at recombinant T. cruzi TR (setting [4]) amounted to 20.3%; on recombinant T. cruzi TR (setting [5]) it was 15.2%. Further, the inhibition at 10 µM is 34.1% on recombinant T. cruzi TR (setting [4]) and 24.7% on recombinant T. cruzi TR (setting [5]). Also, the inhibition at 20 µM was 45.7% on recombinant T. cruzi TR (setting [4]) and 36.1% at recombinant T. cruzi TR (setting [5]). Also, the inhibition at 40 µM on recombinant T. cruzi TR (setting [4]) was found to be 55.1%; at recombinant T. cruzi TR (setting [5]), 48.1%. The inhibition at 60 µM on recombinant T. cruzi TR (the highest concentration that could be measured, 100 μM or 40 μM TS2, read-out: % inhibition of TR) was 60%; on recombinant T. cruzi TR (setting [4]), 60.9%; on recombinant T. cruzi TR (setting [5]) it was 60.1%. The inhibition at 80 µM came to 44% on recombinant T. cruzi TR (setting [4]) and 33% on recombinant T. cruzi TR (setting [5]). The IC50 was 50 µM on recombinant T. cruzi TR (inhibitor 5-60 μM, read-out: IC50 against TcTR); 2.42 ± 0.5 µM in data set [3]; less than 2.5 µM in data set [3] (Trypanosoma cruzi). Further, the CC50 in data set [1] (Trypanosoma cruzi, 24 h) was determined as 73 µM; in data set [1], 73.1 ± 12.4 µM. Moreover, the killing at 50 µg/mL stood at 76.2 ± 1.2% in data set [1] (Trypanosoma cruzi, 50 μg/mL, 24 h at 4 °C, infected mouse blood, read-out: % Lysis at 50 μg/mL INC-5 Strain) and 74.2 ± 6.4% in data set [2] (50 μg/mL, 24 h at 4 °C, infected mouse blood, read-out: % Lysis at 50 μg/mL NINOA Strain). Moreover, the LC50 in data set [2] (24 h) worked out at 59.9 ± 7.9 µM.
